One may read the ED50 as the midpoint of the dose-response relation.

Test [1] concerns NMDA-induced tonic convulsions. Kind of test: NMDA test (40 mg/kg i.v.), protection against tonic convulsions (antiepileptic efficacy). The note with it: Mus musculus, po; for responders at 25 mg/kg: 25 mg/kg p.o. 1 h before test; for responders at 20 mg/kg: 20 mg/kg p.o. 1 h before test. The class given is in vivo, male NMRI mice. How it is done:
In order to determine the neuroprotective and anticonvulsive activity of the compounds in accordance with the invention of the general formula I, two slightly different methods were employed as follows: […]
1. In order to determine the neuroprotective efficacy NMDA at a rate of 25 mg/kg/10 ml was administered intravenously to male NMRI mice with a body weight of 20 to 25 g. As a consequence of this application the animals suffer clonic and partly tonic convulsions, which lead to death. As a criterion for the efficacy of the investigated compounds prevention of death is used.
2. In order to ascertain the antiepileptic efficacy the same method was utilized with an NMDA dosage of 40 mg/kg/10 ml i.v. This higher NMDA dosage led in the case of all animals to the occurrence of tonic convulsions.
All animals used in the investigations had free access to food and water prior to the experiments. The test and reference substances were all administered as a suspension in 0.2% agar or water, partly by the intermediary of solution promoters such as for instance PEG-400, perorally using an esophageal probe. Control animals received the same volumes of the solvent with optional solution promoters. One hour after the application of the substance NMDA was administered intravenously and the animals observed for the occurrence of convulsions.
In table 2 the results of the tests (NMDA 40 mg i.v.) performed in accordance with method 2 are compiled with dosages of 5-25 mg of the compounds in accordance with the invention per kg of body weight in comparison with known anticonvulsants and antiepileptics. As a percentage efficacy the percentage of animals is used which in the test were protected against the occurrence of tonic convulsions.
The determination of the ED50 values was performed in accordance with the method described in Lichtfield and Wilcoxon, J. Pharmacol. exp. Therapeut. 96, 99 (1949) in each case with 4 to 5 groups of 10 animals per dosage rate.

The test system of test [2] is NMDA-induced death. Kind of test: NMDA test (25 mg/kg i.v.), prevention of NMDA-induced death (neuroprotective efficacy). The note with it: Mus musculus, po, NMDA 25 mg/kg i.v.; for ED50: 1 h, dose protecting 50% of animals against NMDA-induced death one hour after application; for responders at 50 mg/kg: 50 mg/kg p.o. 1 h before test; for responders at 25 mg/kg: 25 mg/kg p.o. 1 h before test; for responders at 20 mg/kg: 20 mg/kg p.o. 1 h before test. It counts as in vivo, male NMRI mice.

Test [3] deals with ovalbumin-induced anaphylactic paw edema. Kind of test: Passive rat paw anaphylaxy (inhibition of edema volume; antiallergic and anti-inflammatory). It counts as in vivo, male Sprague-Dawley rats. The following applies: Rattus norvegicus, po; 25 mg/kg p.o. 1 h before test; read-out: Protective action (percentage inhibition of edema volume). How it is done: The determination of the antiallergic and anti-inflammatory properties of the compounds in accordance with the invention was using a passive rat paw anaphylaxy model.
Male Sprague-Dawley rats were utilized for all tests. The animals were kept under standardized environmental conditions with free access to food and water. For sensitization to the antigen 100 μl of a mouse antiserum to ovalbumin was injected sublplantarly into the left rear paw. […] The opposite paw was for control injected subplantarly only with 100 μl of the solvent (sterile physiological NaCl solution). Overnight the investigated animals were deprived of food but had water ad lib.
Per group in all tests between 6 and 8 animals were used. One hour later the anaphylactic reaction was caused by the intravenous injection of 10 mg/10 ml/kg ovalbumin in physiological NaCl solution. […] The edema volume was calculated from the difference between the values of the two paws. The antiallergic action is in this case expressed as a percentage inhibition of the edema volume of the animals in the test group as compared with control groups undergoing parallel investigation. […] The determination of the ED50 values was performed by linear regression after log transformation of the administered doses, at least three dosage rates being employed.

[4] abbreviates: 1 h, read-out: Protective action (percentage of animals protected against tonic convulsions).
[5] abbreviates: 50 mg/kg p.o. 1 h before test, NMDA 40 mg/kg i.v., read-out: Protective action (percentage of animals protected against tonic convulsions).
Where [6] appears, read: read-out: Protective action (percentage of surviving animals).
Setting [7] is: 5 mg/kg p.o. 1 h before test, NMDA 40 mg/kg i.v., read-out: Protective action (percentage of animals protected against tonic convulsions).
The mark [8] stands for this setting: NMDA 40 mg/kg i.v., read-out: Protective action (percentage of animals protected against tonic convulsions).
Where [9] appears, read: 1 h, dose protecting 50% of animals against tonic convulsions one hour after application, NMDA 40 mg/kg i.v., read-out: ED50.

Where two headings read alike, the source gives them in different places.

For the compound `CN1C(=O)CN=C(c2ccccc2)c2cc(Cl)ccc21` [diazepam], the responders at 5 mg/kg in test [1] (setting [4]) amounted to 25%.
Turning to `NC(=O)N1c2ccccc2C=Cc2ccccc21` [carbamazepin], in test [1] (setting [5]), the responders at 50 mg/kg stood at 75%.
In turn, `Fc1ccc(C(c2ccc(F)cc2)N2CCN(C/C=C/c3ccccc3)CC2)cc1` [flunarizin, reference compound] returned an ED50 in test [2] of 22.8 mg/kg. For the same compound, the responders at 50 mg/kg in test [2] (setting [6]) and in test [1] (setting [5]) was 100% in each case.
On to `COc1cc2oc(=O)c3c(c2cc1OCCCN1CCC(c2ccccc2)CC1)CCCC3` [Example 43, 7,8,9,10-tetrahydro-3-methoxy-2-[3-(4-phenyl-1-piperidinyl)propoxy]-6H-dibenzo[b,d]pyran-6-one], for which the ED50 in test [2] stood at 5.5 mg/kg. In test [2] (setting [6]), the responders at 25 mg/kg came to 100%. Besides, in test [1] (setting [7]), the responders at 5 mg/kg was 37.5%. For the same compound, in test [3], the inhibition in vivo at 25 mg/kg is 19%.
On to `CCCC(CCC)C(=O)O` [valproinic acid], for which the responders at 250 mg/kg in test [1] (setting [4]) was 87.5%.
Consider `COc1cc2oc(=O)ccc2cc1OCCCN1CCN(c2cccc(C(F)(F)F)c2)CC1` [Example 6, 7-methoxy-6-{3-[4-(3-trifluoromethylphenyl)-1-piperazinyl]propoxy}-2H-1-benzopyran-2-one], for which, in test [2], the ED50 was determined as 13.5 mg/kg. The responders at 25 mg/kg in test [2] (setting [6]) worked out at 87.5%; in test [1] (setting [8]), 0%.
Compound `COc1cc2oc(=O)ccc2cc1OCC(O)CN1CCN(c2cccc(Cl)c2)CC1` (racemic) [Example 19, (±)-6-{3-[4-(3-chlorophenyl)-1-piperazinyl]-2-hydroxypropoxy}-7-methoxy-2H-1-benzopyran-2-one] displayed a median effective dose (ED50) in test [2] of 8.3 mg/kg. Also, the responders at 25 mg/kg in test [2] (setting [6]) amounted to 100%; in test [1] (setting [8]) it was 87.5%. The inhibition in vivo at 25 mg/kg in test [3] was found to be 32%.
`O=C1NC(=O)C(c2ccccc2)(c2ccccc2)N1` [diphenylhydantoin]: in test [1] (setting [5]), the responders at 50 mg/kg turned out to be 50%.
With `CCC1(c2ccccc2)C(=O)NC(=O)NC1=O` [phenobarbital], the responders at 50 mg/kg in test [1] (setting [4]) amounted to 62.5%.
`COc1cc2ccc(=O)oc2cc1OCC(O)CN1CCC(c2ccccc2)CC1` (racemic) [Example 23, (±)-7-[2-hydroxy-3-(4-phenyl-1-piperidinyl)-propoxy]-6-methoxy-2H-1-benzopyran-2-one]: the ED50 in test [2] was 28.5 mg/kg. The responders at 100 mg/kg in test [2] (100 mg/kg p.o. 1 h before test, read-out: Protective action (percentage of surviving animals)) came to 100%. Besides, the responders at 5 mg/kg in test [1] (setting [7]) was 12.5%.
With `COc1ccc2c(c1)[C@]13CCCC[C@@H]1[C@H](C2)N(C)CC3` [dextromethorphan, reference compound], the results for the ED50 in test [2] and in test [1] (1 h) were 66.7 mg/kg and 58 mg/kg, respectively. Further, the responders at 50 mg/kg in test [2] (setting [6]) worked out at 50%. The responders at 100 mg/kg in test [1] (setting [4]) came out at 100%.
`COc1cc2oc(=O)c3c(c2cc1OCCCN1CCC(c2ccccc2)CC1)CCC3` [Example 49, 2,3-dihydro-7-methoxy-8-[3-(4-phenyl-1-piperidinyl)propoxy]cyclopenta[c][1]benzopyran-4(1H)-one]: the ED50 in test [2] is 6.8 mg/kg; in test [1] (setting [9]), 4 mg/kg. In test [2] (setting [6]), the responders at 25 mg/kg came to 75%. The responders at 20 mg/kg in test [1] (setting [8]) worked out at 87.5%. Moreover, the inhibition in vivo at 25 mg/kg in test [3] came out at 47%.
In turn, `CCOc1cc2ccc(=O)oc2cc1OCCCN1CCN(c2ccccc2)CC1` [Example 4, 6-ethoxy-7-[3-(4-phenyl-1-piperazinyl)propoxy]-2H-1-benzopyran-2-one] had a 50% effective dose (ED50) in test [2] of 1.7 mg/kg. For the same compound, in test [2] (setting [6]), the responders at 25 mg/kg is 100%. For the same compound, in test [1] (setting [7]), the responders at 5 mg/kg is 62.5%. In test [3], the inhibition in vivo at 25 mg/kg was determined as 79%.
The compound `COc1cc2oc(=O)ccc2cc1OCC(O)CN1CCN(c2ccccc2)CC1` (racemic) [Example 18, (±)-7-methoxy-6-[2-hydroxy-3-(4-phenyl-1-piperazinyl)propoxy]-2H-1-benzopyran-2-one] registered an ED50 in test [2] of 6.4 mg/kg. Also, the responders at 25 mg/kg in test [2] (setting [6]) and in test [1] (setting [8]) was 100% each time. The inhibition in vivo at 25 mg/kg in test [3] was found to be 56%.
`COc1ccc(CCN(C)CCCC(C#N)(c2ccc(OC)c(OC)c2)C(C)C)cc1OC` (centres unmarked) [verapamil, reference compound] came in with an ED50 in test [2] of 17.3 mg/kg. The responders at 20 mg/kg in test [2] (setting [6]) was 87.5%. In addition, the responders at 50 mg/kg in test [1] (setting [4]) stood at 50%.
Turning to `COCCOC(=O)C1=C(C)NC(C)=C(C(=O)OC(C)C)C1c1cccc([N+](=O)[O-])c1` (centres unmarked) [nimodipin, reference compound], the ED50 in test [2] was 18.5 mg/kg; in test [1] (setting [9]) it was 25.4 mg/kg. The responders at 20 mg/kg in test [2] (setting [6]) came out at 87.5%; in test [1] (setting [8]), 25%.
`COc1cc2ccc(=O)oc2cc1OCCCN1CCC(c2ccccc2)CC1` [Example 10, 6-methoxy-7-[3-(4-phenyl-1-piperidinyl)propoxy]-2H-1-benzopyran-2-one]: the median effective dose (ED50) in test [2] was 23 mg/kg. Moreover, the responders at 25 mg/kg in test [2] (setting [6]) worked out at 75%. The responders at 5 mg/kg in test [1] (setting [7]) was determined as 25%. Moreover, the inhibition in vivo at 25 mg/kg in test [3] was determined as 22%.

For the origin of these results see patent publication US5428038A, “Benzopyranones, a method for producing them and uses therefor” (Dr. Willmar Schwabe GmbH & Co., priority 1991, dated 1995).
